Key:
[1] = Nitrous oxide concentration in exhaled air of pigs after injection of irrigating fluid containing nitrous oxide; type: in vivo, pig
Text: A Telair N2O monitor type 2001 L was used to measure the nitrous oxide concentration. The measuring range of the instrument was 0–1000 ppm.
As the analyser was sensitive also to carbon dioxide an absorber containing soda lime to remove the carbon dioxide was arranged before the analyser. During the absorption process water is formed which together with the moisture in the exhaled air can disturb the measurements. A layer of silica gel after the soda lime absorber was used to eliminate this problem.
The sample gas pump gave a sample flow of 300 mL/min.
The pump was continuously pumping gas. The measured concentration was a time weighted average for the exhaled and inhaled gas.
The weight of the pig was 19 kg.
The weight of the pig was 21 kg. Ventilation as for pig. 1. First 300 mL of irrigating fluid were injected intraperitonally during 20 minutes. The initial decrease in nitrous oxide concentration was caused by placing the needle in the wrong place. Some mL were injected before the injection was stopped and the test restarted. The decrease is the decay phase from the first injection.
In test two 600 mL were administered intravenously during 20 minutes.
Weight 23 kg. Ventilation […], the rest as for pig 1. First a number of tests with intravenous injection of pulses of fluid were performed. The volumes added were 2, 10 and 20 mL. Approximately 1 mL/s was added.
Then 150 mL of fluid were administered intravenously during 20 minutes. The discontinuity in the diagram was caused by testing another ventilator setting which affected the reading so much that the data point was not used. After 40 minutes 600 mL of irrigating fluid were added intravenously during 20 minutes.
The nitrous oxde concentration values are measured concentrations minus the starting point value. In some cases a test was started while the nitrous oxide concentration from the previous test was still decreasing. As the base line was not stable, the values at the end of the decay phase are uncertain. This can be seen in FIG. 4, where it looks like the 150 mL concentration values are stabilizing at a higher level than the 600 mL values.

[2] = pig, in vivo
Method: To a bag with 3 L fluid 300 mL of nitrous oxide (=0,18 mg nitrous oxide/mL irrigagting fluid) were added. The nitrous oxide was measured with a 300 mL glass syringe and injected into the bag using the syringe connection. The temperature was abut 22° C. and the air pressure about 1015 mbar (not measured but estimated via meteorological service). Before the addition of nitrous oxide the gas in the bag was removed, about 1 mL remained. After the addition of nitrous oxide the bag was shaken until the nitrous oxide was dissolved. A gas bubble with a volume of abut 15 mL remained.
The weight of the pig was 19 kg. Ventilation 3L/min with 20 breaths per minute, 25% inhalation followed by 10% pause. At the first test 300 mL of irrigating fluid were injected intravenously during 20 min using a dosing pump.

[3] = intraperitoneal injection of irrigating fluid, exhaled air
[4] = intravenous injection of irrigating fluid, exhaled air

Row | decrease of concentration in exhaled air compared with ethanol ([1]; data normalised to similar peak heights, pig 1, intravenous) | time before the nitrous oxide concentration started to increase [1, 3] [min] | time to 50% of the final concentration after the start of the increase [1, 3] | time after start of injection until nitrous oxide concentration started to increase [1, 4] | time to 50% of the final concentration after the concentration started to increase [1, 4] | measured nitrous oxide concentration used in mass balance ([1]; pig 3, 30 mL/min irrigating fluid intravenously, time weighted average of exhaled and inhaled gas) [ppm] | exhaled nitrous oxide (mass balance) ([1]; pig 3, added amount of nitrous oxide 3,0 mL/min) | increase of nitrous oxide concentration per mL of irrigating fluid ([1]; pulses of fluid added intravenously (2, 10, 20 mL), exhaled air, pig 3) | time of peak reading after start of injection ([1]; pulses of fluid added intravenously, exhaled air) | highest measured ethanol concentration [2] [%] | SMILES
1 | decreased much faster than the ethanol | 2.5 | about 5 minutes | about 15 seconds | about one | 520 | 3,0 mL/min | 10–15 ppm per mL | about 30 seconds |  | [N-]=[N+]=O [nitrous oxide]
2 |  |  |  |  |  |  |  |  |  | 0.20 | CCO [ethanol]

— US7041275B2, “Irrigating fluid” (priority 2001, dated 2006)
